For the experiment, the system named is C57BL/6 male mice. Nature of the experiment: Urinary glucose excretion test (UGE test). The format is in vivo. The conditions noted are these: 2 g/kg glucose after 30 minutes, urine collected for 24 hours. How it is done: The pharmaceutical efficacies of the compounds prepared in the Examples were investigated by a urinary glucose excretion test using C57BL/6 male mice (8-week-old, prepared and supplied from Orient Chemical Co. Ltd.).
Two mice were used in each group. The mice were fasted for 16 hours, and the compound of each of the Examples [10 mg/kg of the compound of Examples 1 to 12; and 3 mg/kg of the compound of Examples 13 to 38] was dissolved in a vehicle [a mixed solution of 5% 1-methyl-2-pyrrolidinone, 20% PEG, and 75% 20 mM sodium diphosphate], and orally administered to the mice. After 30 minutes, 2 g/kg of glucose was orally administered to the mice in all the groups. Thereafter, the mice were immediately put into a metabolic cage, and urine was collected for 24 hours. The mice were freely fed an hour after the administration of glucose.
The results obtained from the test, that is, the results obtained by measuring urinary glucose excretion in the C57BL/6 male mice according to the compounds of the Examples, are listed in Table 5.

Where [1] appears, read: 10 mg/kg oral (Examples 1 to 12).
Where [2] appears, read: 3 mg/kg oral (Examples 13 to 38).

Our source for the UGE values is patent US9828366B2, “Bicyclic derivatives and pharmaceutical composition including the same” (HANMI PHARM. CO., LTD., priority 2014, dated 2017).

Regarding `CCOc1ccc(Cc2cc([C@@H]3O[C@H](CO)[C@@H](O)[C@H](O)[C@H]3O)cc3c2OCC3)cc1` [Example 1, (2S,3R,4R,5S,6R)-2-(7-(4-ethoxybenzyl)-2,3-dihydrobenzofuran-5-yl)-6-hydroxymethyl-tetrahydro-2H-pyran-3,4,5-triol], the UGE under setting [1] is on record as 1.2 mg/20 g/24 hr.

`CCc1ccc(Cc2cc([C@@H]3O[C@H](CO)[C@@H](O)[C@H](O)[C@H]3O)cc3c2OCC3)cc1` [Example 2, (2S,3R,4R,5S,6R)-2-(7-(4-ethylbenzyl)-2,3-dihydrobenzofuran-5-yl)-6-hydroxymethyl-tetrahydro-2H-pyran-3,4,5-triol]: the UGE under setting [1] is recorded as 8.3 mg/20 g/24 hr.

In the case of `CCCc1ccc(Cc2cc([C@@H]3O[C@H](CO)[C@@H](O)[C@H](O)[C@H]3O)cc3c2OCC3)cc1` [Example 3, (2R,3S,4R,5R,6S)-2-hydroxymethyl-6-(7-(4-n-propylbenzyl)-2,3-dihydrobenzofuran-5-yl)-tetrahydro-2H-pyran-3,4,5-triol], under setting [1], the UGE is given as 3.7 mg/20 g/24 hr.

Compound `OC[C@H]1O[C@@H](c2cc3c(c(Cc4ccc(C(F)(F)F)cc4)c2)OCC3)[C@H](O)[C@@H](O)[C@@H]1O` [Example 4, (2R,3S,4R,5R,6S)-2-hydroxymethyl-6-(7-(4-trifluoromethylbenzyl)-2,3-dihydrobenzofuran-5-yl)tetrahydro-2H-pyran-3,4,5-triol] showed a UGE under setting [1] of 4.6 mg/20 g/24 hr.

Under setting [1], `OC[C@H]1O[C@@H](c2cc3c(c(Cc4ccc(OC(F)(F)F)cc4)c2)OCC3)[C@H](O)[C@@H](O)[C@@H]1O` [Example 5, (2R,3S,4R,5R,6S)-2-hydroxymethyl-6-(7-(4-trifluoromethoxybenzyl)-2,3-dihydrobenzofuran-5-yl)tetrahydro-2H-pyran-3,4,5-triol] yielded a UGE of 3.7 mg/20 g/24 hr.

Under setting [1], `OC[C@H]1O[C@@H](c2cc3c(c(Cc4ccc(F)cc4)c2)OCC3)[C@H](O)[C@@H](O)[C@@H]1O` [Example 6, (2S,3R,4R,5S,6R)-2-(7-(4-fluorobenzyl)-2,3-dihydrobenzofuran-5-yl)-6-(hydroxymethyl)tetrahydro-2H-pyran-3,4,5-triol] came in with a UGE of 3.9 mg/20 g/24 hr.

On to `OC[C@H]1O[C@@H](c2cc3c(c(Cc4ccc5c(c4)OCCO5)c2)OCC3)[C@H](O)[C@@H](O)[C@@H]1O` [Example 7, (2S,3R,4R,5S,6R)-2-(7-((2,3-dihydrobenzo[b][1,4]dioxin-6-yl)methyl)-2,3-dihydrobenzofuran-5-yl)-6-(hydroxymethyl)tetrahydro-2H-pyran-3,4,5-triol], for which the UGE under setting [1] was 2.8 mg/20 g/24 hr.

The compound `OC[C@H]1O[C@@H](c2cc3c(c(Cc4ccc(OCC5CC5)cc4)c2)OCC3)[C@H](O)[C@@H](O)[C@@H]1O` [Example 8, (2S,3R,4R,5S,6R)-2-(7-(4-(cyclopropylmethoxy)benzyl)-2,3-dihydrobenzofuran-5-yl)-6-(hydroxymethyl)tetrahydro-2H-pyran-3,4,5-triol] came in with a UGE under setting [1] of 4.3 mg/20 g/24 hr.

In the case of `CCOc1ccc(Cc2cc([C@@H]3O[C@H](CO)[C@@H](O)[C@H](O)[C@H]3O)cc3c2OCC3)cc1F` [Example 9, (2S,3R,4R,5S,6R)-2-(7-(4-ethoxy-3-fluorobenzyl)-2,3-dihydrobenzofuran-5-yl)-6-(hydroxymethyl)tetrahydro-2H-pyran-3,4,5-triol], under setting [1], the UGE is 4.6 mg/20 g/24 hr.

Under setting [1], `CCOc1ccc(Cc2cc([C@@H]3O[C@H](CO)[C@@H](O)[C@H](O)[C@H]3O)cc3c2OCC3)c(F)c1` [Example 10, (2S,3R,4R,5S,6R)-2-(7-(4-ethoxy-2-fluorobenzyl)-2,3-dihydrobenzofuran-5-yl)-6-(hydroxymethyl)tetrahydro-2H-pyran-3,4,5-triol] showed a UGE of 3.2 mg/20 g/24 hr.

`OC[C@H]1O[C@@H](c2cc3c(c(Cc4ccc(O)cc4)c2)OCC3)[C@H](O)[C@@H](O)[C@@H]1O` [Example 11, (2S,3R,4R,5S,6R)-2-(7-(4-hydroxybenzyl)-2,3-dihydrobenzofuran-5-yl)-6-(hydroxymethyl)tetrahydro-2H-pyran-3,4,5-triol] registered a UGE under setting [1] of 3.0 mg/20 g/24 hr.

`CS(=O)(=O)CCCOc1ccc(Cc2cc(C3O[C@H](CO)[C@@H](O)[C@H](O)[C@H]3O)cc3c2OCC3)cc1` (stereo partly shown) [Example 12] came in with a UGE under setting [1] of 0 mg/20 g/24 hr.

Compound `CCOc1ccc(Cc2cc([C@@H]3O[C@H](CO)[C@@H](O)[C@H](O)[C@H]3O)cc3c2CCC3)cc1` [Example 13, (2S,3R,4R,5S,6R)-2-(7-(4-ethoxybenzyl)-2,3-dihydro-1H-inden-5-yl)-6-(hydroxymethyl)tetrahydro-2H-pyran-3,4,5-triol] gave a UGE under setting [2] of 1.7 mg/20 g/24 hr.

As to `CCCc1ccc(Cc2cc([C@@H]3O[C@H](CO)[C@@H](O)[C@H](O)[C@H]3O)cc3c2CCC3)cc1` [Example 17, (2R,3S,4R,5R,6S)-2-(hydroxymethyl)-6-(7-(4-propylbenzyl)-2,3-dihydro-1H-inden-5-yl)tetrahydro-2H-pyran-3,4,5-triol], the UGE under setting [2] was found to be 1.0 mg/20 g/24 hr.

On to `CC(C)c1ccc(Cc2cc([C@@H]3O[C@H](CO)[C@@H](O)[C@H](O)[C@H]3O)cc3c2CCC3)cc1` [Example 18, (2R,3S,4R,5R,6S)-2-(hydroxymethyl)-6-(7-(4-isopropylbenzyl)-2,3-dihydro-1H-inden-5-yl)tetrahydro-2H-pyran-3,4,5-triol], for which the UGE under setting [2] came out at 7.0 mg/20 g/24 hr.

The compound `CCOc1ccc(Cc2cc([C@@H]3O[C@H](CO)[C@@H](O)[C@H](O)[C@H]3O)cc3c2CCC3)cc1F` [Example 20, (2S,3R,4R,5S,6R)-2-(7-(4-ethoxy-3-fluorobenzyl)-2,3-dihydro-1H-inden-5-yl)-6-(hydroxymethyl)tetrahydro-2H-pyran-3,4,5-triol] registered a UGE under setting [2] of 0.6 mg/20 g/24 hr.

Compound `CCOc1ccc(Cc2cc([C@@H]3O[C@H](CO)[C@@H](O)[C@H](O)[C@H]3O)cc3c2CCC3)c(F)c1` [Example 21, (2S,3R,4R,5S,6R)-2-(7-(4-ethoxy-2-fluorobenzyl)-2,3-dihydro-1H-inden-5-yl)-6-(hydroxymethyl)tetrahydro-2H-pyran-3,4,5-triol] showed a UGE under setting [2] of 4.2 mg/20 g/24 hr.

Under setting [2], `Cc1ccc(Cc2cc([C@@H]3O[C@H](CO)[C@@H](O)[C@H](O)[C@H]3O)cc3c2CCC3)cc1F` [Example 25, (2S,3R,4R,5S,6R)-2-(7-(3-fluoro-4-methylbenzyl)-2,3-dihydro-1H-inden-5-yl)-6-(hydroxymethyl)tetrahydro-2H-pyran-3,4,5-triol] came in with a UGE of 5.5 mg/20 g/24 hr.

For `Cc1ccc(Cc2cc([C@@H]3O[C@H](CO)[C@@H](O)[C@H](O)[C@H]3O)cc3c2CCC3)c(F)c1` [Example 26, (2S,3R,4R,5S,6R)-2-(7-(2-fluoro-4-methylbenzyl)-2,3-dihydro-1H-inden-5-yl)-6-(hydroxymethyl)tetrahydro-2H-pyran-3,4,5-triol], the UGE under setting [2] was found to be 4.8 mg/20 g/24 hr.
